Experimental data reported in PubChem BioAssay (NCI).
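Exposure lasted 48 hours, with cells grown in 96-well plates and compounds tested at five concentrations. TGI: total growth inhibition.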

What was measured:
Assay in all cases: inhibition of tumour cell growth, NCI panel, 48 h
[1] = system: LXFL 529 NSCLC
[2] = system: K-562 leukemia
[3] = system: UO-31 renal
[4] = system: SNB-19 CNS
[5] = system: OVCAR-3 ovarian
[6] = system: LOX IMVI melanoma
[7] = system: DMS 273 small cell lung
[8] = system: COLO 205 colon
[9] = system: DLD-1 colon
[10] = system: MCF7 breast
[11] = system: DU-145 prostate
[12] = system: MDA-N

SMILES | TGI [1] | TGI [2] | TGI [3] | TGI [4] | TGI [5] | TGI [6] | TGI [7] | TGI [8] | TGI [9] | TGI [10] | TGI [11] | TGI [12]
CC(C)N1CC2CC(CN(C(=O)c3ccccc3)C2)C1 | > 100 µM | > 100 µM | > 100 µM | > 100 µM | > 100 µM | > 100 µM | > 100 µM | > 100 µM |  |  |  | 
COC(=O)c1ccccc1NC(=O)C(=O)NNC(=O)c1ccncc1 | > 100 µM |  | > 100 µM | > 100 µM | > 100 µM | > 100 µM | > 100 µM | > 100 µM | > 100 µM |  |  | 
COC(=O)C(=O)C(C(=O)C(=O)Nc1cccc(C(C)=O)c1)c1nc2ccccc2[nH]c1=O (centres undefined) | > 100 µM | > 100 µM | > 100 µM | > 100 µM | > 100 µM | > 100 µM | > 100 µM | > 100 µM | > 100 µM |  |  | 
O=P(O)(O)c1ccccc1Oc1ccccc1 |  | > 100 µM | > 100 µM | > 100 µM | > 100 µM | > 100 µM |  | > 100 µM |  | > 100 µM | > 100 µM | > 100 µM
CCC(CO)Nc1nc(NCc2ccccc2)c2ncn(C(C)C)c2n1 (centres undefined) |  | > 100 µM | 40.7 µM | > 100 µM | 37.9 µM | > 100 µM |  | 34.1 µM |  | > 57.3 µM | > 100 µM | > 100 µM
CCC1=C(C(C)=O)[C@@H]2CCCCC[C@@H](C(=O)OC)C2C1=O (some centres undefined) | > 100 µM | > 100 µM | > 100 µM | > 100 µM |  |  | > 100 µM | > 100 µM | > 100 µM |  |  | 
CCC(O)(Cc1ccc(OC)cc1)c1ccc(OC)cc1 (centres undefined) |  | > 100 µM | > 100 µM | > 100 µM | > 100 µM | > 100 µM |  | > 100 µM |  | > 100 µM | > 100 µM | > 100 µM
CCOC(=O)C1(C#N)C(c2ccccc2)CC(O)(c2ccc(Cl)cc2)C(C(=O)c2ccc(Cl)cc2)C1c1ccccc1 (centres undefined) | > 100 µM |  | > 100 µM | 90.8 µM | > 100 µM | > 100 µM | > 100 µM | > 100 µM | > 100 µM |  |  | 
CC1(C)OCC2OC3([C@@H]4OC(C)(C)O[C@H]4CO)OC(C)(C)OC3C2O1 (some centres undefined) |  | > 100 µM | > 100 µM | > 100 µM | > 100 µM | > 100 µM |  | > 100 µM |  | > 100 µM | > 100 µM | > 100 µM
O=C(O)c1cccc2cccc(-c3cccc4cccc(C(=O)O)c34)c12 |  | > 100 µM | > 100 µM | > 100 µM | > 100 µM | > 100 µM |  | > 100 µM |  | > 100 µM | > 100 µM | > 100 µM
CN1C(=O)N(C)C(O)C(Cl)(Br)C1=O (centres undefined) |  | > 100 µM | > 100 µM | > 100 µM | > 100 µM | > 100 µM |  | > 100 µM |  | > 100 µM | > 100 µM | > 100 µM
Cn1c(=O)c(-c2ccccc2)c(O)c2ccccc21 |  | > 100 µM | > 100 µM | > 100 µM | > 100 µM | > 100 µM |  | > 100 µM |  | > 100 µM | > 100 µM | > 100 µM
CS(=O)(=O)CSCSSCS(C)(=O)=O | 42.5 µM | > 95.5 µM | > 58.3 µM | > 100 µM | > 100 µM | 71.2 µM | > 81.3 µM | 38 µM | > 75.4 µM |  |  | 
CCCCSc1nsc(N(C(=O)c2ccccc2)C(=O)c2ccccc2)n1 |  | 99.7 µM | 39.5 µM | > 100 µM | 61.1 µM | > 100 µM |  | 41.5 µM |  | > 100 µM | > 100 µM | > 100 µM
COC(=O)[C@@H]1CCCCC[C@H]2C(CO)=C(C)C(=O)C12 (some centres undefined) | > 100 µM | > 100 µM | > 100 µM | > 100 µM |  |  | > 100 µM | > 100 µM | > 100 µM |  |  | 
CSc1nc(NC(C)C)c2c(n1)Sc1nc3ccccc3n1N=C2 |  | > 100 µM | 25.6 µM | 39 µM | 25.1 µM | > 100 µM |  | > 100 µM |  | 60 µM | 31.3 µM | > 100 µM
COC(=O)C1C(C(=O)OC)C2(OC(c3ccc(Cl)cc3)=CC2=O)C12OC(c1ccc(Cl)cc1)=CC2=O (centres undefined) |  | 53.5 µM | 33.6 µM | > 100 µM | 42 µM | 57.4 µM |  | 34.6 µM |  | 64.6 µM | > 100 µM | 47.3 µM

SMILES | TGI [1] | TGI [2] | TGI [3] | TGI [4] | TGI [5] | TGI [6] | TGI [7] | TGI [8] | TGI [9] | TGI [10] | TGI [11] | TGI [12]
N#C/C(C(=O)Nc1ccc(Cl)cc1)=C(/N)N1CCCC1 |  | > 100 µM | > 100 µM | > 100 µM | > 100 µM | > 100 µM |  | > 100 µM |  | > 100 µM | > 100 µM | > 100 µM
c1ccc2c(c1)Sc1nccc3ccnc-2c13 |  | > 100 µM | 47.6 µM | > 100 µM | > 100 µM | > 100 µM |  | > 100 µM |  | > 100 µM | > 100 µM | > 100 µM
CN(C)CC1CCC/C(=C\c2ccc(OC(=O)c3ccc(Cl)cc3)cc2)C1=O (centres undefined) |  | 3.8 µM | 2.97 µM | 13.7 µM | 3.36 µM | 1.98 µM |  | 4.81 µM |  | 1.58 µM | 6.79 µM | 7.45 µM
CC1=NN(c2nc(N)nc(-c3sccc3N)n2)C(C)(C)C1 |  | > 100 µM | > 100 µM | > 100 µM | > 100 µM | > 100 µM |  | > 100 µM |  | > 100 µM | > 100 µM | > 100 µM
CCn1c2ccc(C(=O)CCCN3CCCCC3)cc2c2cc(C(=O)CCCN3CCCCC3)ccc21 |  | > 22.6 µM | 18.6 µM | 10.6 µM | 5.3 µM | 4.47 µM |  | 15.7 µM |  | 4.94 µM | 18.2 µM | 5.7 µM
O=C(OCCN=c1c2ccccc2ccc2ccccc12)c1ccccc1 |  | > 100 µM | > 100 µM | > 100 µM | > 100 µM | > 100 µM |  | > 100 µM |  | > 100 µM | > 100 µM | > 100 µM
CC(C)c1cccc(C(C)C)c1NC(=O)/C(CC(=O)CC(c1ccccc1)c1c(O)c2ccccc2oc1=O)=N/O (centres undefined) |  | > 100 µM | > 100 µM | > 100 µM | > 100 µM | > 100 µM |  | > 100 µM |  | > 100 µM | > 100 µM | > 100 µM
COC(=O)C1=C(C(=O)OC)SC(=CC#CC=C2SC(C(=O)OC)=C(C(=O)OC)S2)S1 | > 57.4 µM | > 100 µM | 14.1 µM | 26.2 µM | 17 µM | 44.2 µM | 38.4 µM | > 54.9 µM | > 54 µM |  |  | 
O=c1[nH]c2nc3ccccc3nc2[nH]c1=O |  | > 100 µM | > 100 µM | > 100 µM | > 100 µM | > 100 µM |  | > 100 µM |  | > 100 µM | > 100 µM | > 100 µM
C=C(C)OCOCCOC |  | > 100 µM | > 100 µM | > 100 µM | > 100 µM | > 100 µM |  | > 100 µM |  | > 100 µM | > 100 µM | > 100 µM
O=C(N/N=C(/CCN1CCCC1)CC(c1ccccc1)c1c(O)c2ccccc2oc1=O)c1ccncc1 (centres undefined) | > 100 µM | > 100 µM | > 100 µM | > 100 µM | > 100 µM | > 100 µM |  |  | > 100 µM |  |  | 
C=C1C(OC2O[C@@H]3O[C@@]4(C)CC[C@H]5[C@H](C)CC[C@@H](C2=C)[C@@]35O4)O[C@@H]2O[C@@]3(C)CC[C@H]4[C@H](C)CC[C@@H]1[C@@]24O3 (some centres undefined) |  | > 50 µM | > 50 µM | > 50 µM | > 50 µM | > 50 µM |  | > 50 µM |  | > 50 µM | > 50 µM | > 50 µM
Cc1cc2c(O)c(c1)CN(CC(=O)O)Cc1cc(C)cc(c1O)CN(CC(=O)O)Cc1cc(C)cc(c1O)CN(CC(=O)O)C2 |  | > 100 µM | > 100 µM | > 100 µM | > 100 µM | > 100 µM |  | > 100 µM |  | > 100 µM | > 100 µM | > 100 µM
C=C1OC(c2ccccc2NC)=NC12CCCCC2 |  | > 100 µM | > 100 µM | > 100 µM | > 100 µM | > 100 µM |  | > 100 µM |  | > 100 µM | > 100 µM | > 100 µM
O=C1C=CC(=O)c2c(O)c(N3CCC[C@H]3CO)c(Cl)c(O)c21 |  | 1.87 µM | > 5.84 µM | > 10 µM | > 7.45 µM | 4.34 µM |  | 3.22 µM |  | 3.66 µM | > 6.32 µM | 3.51 µM
CN(C)/N=C(/c1nc2ccc(Cl)cc2[nH]c1=O)C(O)c1ccc(C(O)/C(=N\N(C)C)c2nc3ccc(Cl)cc3[nH]c2=O)cc1 (centres undefined) |  | > 100 µM | > 100 µM | > 100 µM | > 100 µM |  |  | > 100 µM | > 100 µM |  |  | 
CC1C(NNc2ccccc2)Oc2cc3c(cc2C1c1ccccc1O)OCO3 (centres undefined) |  | 4.34 µM | 11 µM | 27.4 µM | 24.1 µM | 28.6 µM |  | 24.5 µM |  | 16.8 µM | 15.1 µM | 18.4 µM
